These results are taken from paper PMC6764326, “The Trials and Tribulations of Structure Assisted Design of KCa Channel Activators” (Frontiers in Pharmacology, 2019).

A word on the melting point: it is the temperature, or range, at which the solid turns liquid.

One series deals with T1, KCa2.2 (Homo sapiens, UniProt P0DP23+Q9H2S1).
T1 construct: expressed in transfected cells
In words: QPatch automated whole-cell patch-clamp screen, 10 µM activator normalized to 10 µM SKA-31. It counts as cell-based. The settings on record: 250 nM free internal Ca2+, HEK cells stably expressing channel. The protocol:
(§1) All experiments were performed in either the inside-out or the whole-cell configuration of the patch-clamp technique on either transiently transfected CHO cells or Human Embryonic Kidney (HEK) cell lines stably expressing hKCa3.1 or hKCa2.2 ([Sankaranarayanan et al., 2009]). All cells were cultured in Dulbecco’s modified Eagle’s medium supplemented with 10% fetal calf serum. Wild-type (WT) and mutant hKCa3.1 channel constructs were transfected using FuGENE 6 transfection reagent (Promega, Madison, WI) in OptiMEM reduced-serum medium (Life Technologies, Benicia, CA) for manual patch-clamp experiments or via electroporation (Nucleofector 2b and Lonza Amaxa Cell Line Nucleofector Kit T) according to the manufacturer’s instructions for automated electrophysiology.
(§2) The procedure for performing automated whole-cell KCa channel recordings on a QPatch-16 automated electrophysiology platform (Sophion Biosciences) was previously described in detail by our laboratory ([Jenkins et al., 2013]). For the current study we used the solutions described above with disposable 16-channel planar patch chip plates (QPlates; patch hole diameter […], resistance 2.00–0.02MΩ, Sophion Biosciences, Woburn, MA). Cell positioning and sealing parameters were set as follows: positioning pressure -70 mbar, resistance increase for success 750%, minimum seal resistance 0.1 GΩ, holding potential -0 mV, holding pressure -20 mbar. To avoid rejection of cells with large KCa3.1 currents, the minimum seal resistance for whole-cell requirement was lowered to 0.001 GΩ. Access was obtained with the following sequence: 1) suction pulses in 29 mbar increments from -250 mbar to -453 mbar; 2) a suction ramp of an amplitude of -450 mbar; 3) -400 mV voltage zaps of 1 ms duration. Following establishment of the whole-cell configuration, cells were held at -80 mV and KCa currents elicited by a voltage protocol that held at -80 mV for 20 ms, stepped to -120 mV for 20 ms, ramped from -120 to + 40 mV in 200 ms, and then stepped back to -120 mV for 20 ms. This pulse protocol was applied every 10 s. KCa activator dilutions were prepared freshly (within 5 min of the initiation of the QPatch) with Ringer’s solution from 10 mM stock solutions in dry DMSO. Final DMSO concentrations never exceeded 1%. Glass vial inserts (to avoid adsorption) were filled with 400 µL of compound solution and placed into the insert base plate for use in the QPatch assay. Exemplary QPatch raw current traces and plots of slope conductance versus time are shown in Supplementary Figure 3 . For each compound we typically used 12 consecutive liquid periods Break-in, 3 saline additions to stabilize the current, 2 additions of test compound at 10 µM, 2 saline washes, 2 additions of SKA-31 at 10 µM, followed by 2 more saline washes. In each liquid period 10 pulse protocols were run.
(§3) The newly synthesized compounds were tested by automated whole-cell patch-clamp for their ability to activate KCa2.2 and KCa3.1 channels stably expressed in HEK cells. […] A promising compound would ideally do both. […] We started by comparing the effect of the SKA-74 derivatives to SKA-31 ( Figure 4A ).
(§4) Figure 4 Whole-cell KCa3.1 and KCa2.2 responses elicited by 10 µM of activator and normalized to 10 µM of the mixed activator SKA-31. Experiments were performed by automated electrophysiology with 250 nM of free internal Ca^2+. In each experiment the new activator was tested first, washed out with 2 saline additions, and then SKA-31 was applied as positive control for normalization of the response. (A) Screening of SKA-74 derivatives. (B) Screening of SKA-75 and SKA-76 derivatives. The bar graphs show means ± SD of the slope conductance measured between −85 and −65 mV (n = 2–7 cells). Chemical structures are shown below the bar graphs.
(§5) Figure 5 Whole-cell KCa3.1 and KCa2.2 responses elicited by 10 µM of activator and normalized to 10 µM of the mixed activator SKA-31. […]
For orientation: Patch clamp records ionic current or voltage across a cell membrane.

The target of a further series is T2, KCa3.1 (Homo sapiens, UniProt O15554+P0DP23).
T2 construct: expressed in transfected cells
The series is described as above. It counts as cell-based. The settings on record: for Whole-cell KCa3.1 response elicited by 10 µM of activator normalized to 10 µM SKA-31 (described in words): 250 nM free internal Ca2+, HEK cells stably expressing channel; for Selectivity between KCa3.1 and KCa2.2 in the 10 µM screen: KCa3.1 versus KCa2.2, 250 nM free Ca2+. The protocol:
as §1, §2, §3, §4, §5

Details of series [1]: method as in Coleman et al., 2014. The settings on record: ref Coleman et al., 2014, cited from earlier work; for KCa2 channel mediated side effects on CNS and heart rate: mice; for Blood pressure lowering: normotensive and hypertensive mice.
Series [2] relates to KCa3.1 over KCa2 channels. The conditions noted are these: second generation activators; ref Coleman et al., 2014; cited from earlier work.

The molecule `Cc1nc2c(cc(C#N)c3ccccc32)o1` [SKA-135, 2-Methylnaphtho[1,2-d]oxazole-5-carbonitrile] yielded a melting point of 145 to 146 °C. For the same molecule, the “Whole-cell KCa2.2 response elicited by 10 µM of activator normalized to 10 µM SKA-31 (described in words)” value at KCa2.2 is “inactive”. Further, the “Whole-cell KCa3.1 response elicited by 10 µM of activator normalized to 10 µM SKA-31 (described in words)” value at KCa3.1 was “inactive”.
Turning to `Cc1ccc2cc(-c3csc(N)n3)ccc2c1` [SKA-198, 4-(6-Methylnaphthalen-2-yl)thiazol-2-amine], the melting point was in the range of 178 to 179 °C. Also, the “Whole-cell KCa2.2 response elicited by 10 µM of activator normalized to 10 µM SKA-31 (described in words)” value on KCa2.2 is “somewhat increased KCa channel activating potency”. The “Whole-cell KCa3.1 response elicited by 10 µM of activator normalized to 10 µM SKA-31 (described in words)” value at KCa3.1 was “somewhat increased KCa channel activating potency”.
The molecule `Cc1nc2c(cc(Br)c3ccccc32)o1` [SKA-133, 5-Bromo-2-methylnaphtho[1,2-d]oxazole] showed a melting point of 101 to 102 °C. Further, the “Whole-cell KCa2.2 response elicited by 10 µM of activator normalized to 10 µM SKA-31 (described in words)” value at KCa2.2 is “decreased activity”. Moreover, on KCa3.1, the “Selectivity between KCa3.1 and KCa2.2 in the 10 µM screen” value is given as “preserved selectivity for KCa3.1”.
Take `Cc1cc2sc(N)nc2c2ccccc12` [SKA-111, 5-methylnaphtho[1,2-d]thiazol-2-amine]: in series [1], the “KCa2 channel mediated side effects on CNS and heart rate” value was “avoiding KCa2 channel mediated side effects on the CNS and on heart rate”; the Blood pressure lowering entry is given as “efficacious in lowering blood pressure”.
`Cc1ccc(-c2csc(Nc3cccc(C(F)(F)F)c3)n2)cc1` [SKA-260, 4-(p-Tolyl)-N-(3-(trifluoromethyl)phenyl)thiazol-2-amine] came in with a melting point of 108 °C. Besides, the “Whole-cell KCa2.2 response elicited by 10 µM of activator normalized to 10 µM SKA-31 (described in words)” value at KCa2.2 is listed as “completely devoid of activity”. In addition, the “Whole-cell KCa3.1 response elicited by 10 µM of activator normalized to 10 µM SKA-31 (described in words)” value on KCa3.1 is given as “completely devoid of activity”.
`FC(F)(F)c1ccc(Nc2nc(-c3ccccc3)cs2)cc1` [SKA-268, 4-Phenyl-N-(4-(trifluoromethyl)phenyl)thiazol-2-amine] had a melting point of 153 °C. For the same molecule, the “Whole-cell KCa2.2 response elicited by 10 µM of activator normalized to 10 µM SKA-31 (described in words)” value on KCa2.2 was “completely devoid of activity”. On KCa3.1, the “Whole-cell KCa3.1 response elicited by 10 µM of activator normalized to 10 µM SKA-31 (described in words)” value is “completely devoid of activity”.
Consider `c1ccc(Nc2nc3c(ccc4ccccc43)s2)cc1` [SKA-146, N-Phenylnaphtho[1,2-d]thiazol-2-amine], for which the melting point lay within 140 to 141 °C. In addition, the “Whole-cell KCa2.2 response elicited by 10 µM of activator normalized to 10 µM SKA-31 (described in words)” value at KCa2.2 is listed as “less potent than SKA-31”. The “Whole-cell KCa3.1 response elicited by 10 µM of activator normalized to 10 µM SKA-31 (described in words)” value at KCa3.1 was “less potent than SKA-31”.
Consider `Cc1ccc2cccc(-c3csc(N)n3)c2c1` [SKA-193, 4-(7-Methylnaphthalen-1-yl)thiazol-2-amine], for which the melting point lay within 154 to 156 °C. The “Whole-cell KCa2.2 response elicited by 10 µM of activator normalized to 10 µM SKA-31 (described in words)” value at KCa2.2 was “somewhat increased KCa channel activating potency”. Also, the “Whole-cell KCa3.1 response elicited by 10 µM of activator normalized to 10 µM SKA-31 (described in words)” value at KCa3.1 is “somewhat increased KCa channel activating potency”.
`CNc1nc2c(ccc3ccccc32)s1` [SKA-158, N-Methylnaphtho[1,2-d]thiazol-2-amine] showed a melting point of 187 to 188 °C. Further, the “Whole-cell KCa2.2 response elicited by 10 µM of activator normalized to 10 µM SKA-31 (described in words)” value on KCa2.2 is “abolished activity on KCa2.2”. The “Whole-cell KCa3.1 response elicited by 10 µM of activator normalized to 10 µM SKA-31 (described in words)” value on KCa3.1 was “preserved it again on KCa3.1”.
In turn, `c1ccc(Nc2nc(-c3cccc4ccccc34)cs2)nc1` [SKA-258, 4-(Naphthalen-1-yl)-N-(pyridin-2-yl)thiazol-2-amine] displayed a melting point of 225 °C. At KCa2.2, the “Whole-cell KCa2.2 response elicited by 10 µM of activator normalized to 10 µM SKA-31 (described in words)” value is listed as “completely abolished activity”. Besides, the “Whole-cell KCa3.1 response elicited by 10 µM of activator normalized to 10 µM SKA-31 (described in words)” value at KCa3.1 was “completely abolished activity”.
For the molecule `CCN(CC)c1cc2sc(N)nc2c2ccccc12` [SKA-330, N^5,N^5-Diethylnaphtho[1,2-d]thiazole-2,5-diamine], the melting point lay within 119 to 121 °C. Also, on KCa2.2, the “Whole-cell KCa2.2 response elicited by 10 µM of activator normalized to 10 µM SKA-31 (described in words)” value was “somewhat reduced potency”. The “Whole-cell KCa3.1 response elicited by 10 µM of activator normalized to 10 µM SKA-31 (described in words)” value on KCa3.1 is “somewhat reduced potency”.
`FC(F)(F)c1cccc(Nc2nc(-c3cccc4ccccc34)cs2)c1` [SKA-251, 4-(Naphthalen-1-yl)-N-(3-(trifluoromethyl)phenyl)thiazol-2-amine] yielded a melting point of 135 °C. Moreover, on KCa2.2, the “Whole-cell KCa2.2 response elicited by 10 µM of activator normalized to 10 µM SKA-31 (described in words)” value is “completely abolished activity”. Further, the “Whole-cell KCa3.1 response elicited by 10 µM of activator normalized to 10 µM SKA-31 (described in words)” value at KCa3.1 is “completely abolished activity”.
Consider `Nc1nc2c(cc([N+](=O)[O-])c3ccccc32)s1` [SKA-321, 5-Nitronaphtho[1,2-d]thiazol-2-amine], for which the melting point was 289 to 291 °C. In addition, on KCa2.2, the “Whole-cell KCa2.2 response elicited by 10 µM of activator normalized to 10 µM SKA-31 (described in words)” value is “drastically reduced potency”. At KCa3.1, the “Whole-cell KCa3.1 response elicited by 10 µM of activator normalized to 10 µM SKA-31 (described in words)” value is “drastically reduced potency”.
In the case of `Cc1nc2c(ccc3c([N+](=O)[O-])cccc32)s1` [SKA-215, 2-Methyl-6-nitronaphtho[1,2-d]thiazole], the melting point lay in the range of 178 to 179 °C. Also, the “Whole-cell KCa2.2 response elicited by 10 µM of activator normalized to 10 µM SKA-31 (described in words)” value at KCa2.2 is “inactive”. The “Whole-cell KCa3.1 response elicited by 10 µM of activator normalized to 10 µM SKA-31 (described in words)” value at KCa3.1 was “inactive”.
In the case of `Nc1nc(-c2ccc(-c3csc(N)n3)cc2)cs1` [SKA-230, 4,4'-(1,4-Phenylene)bis(thiazol-2-amine)], the melting point is 350 °C. Also, the “Whole-cell KCa2.2 response elicited by 10 µM of activator normalized to 10 µM SKA-31 (described in words)” value on KCa2.2 is reported as “completely devoid of activity”. Further, the “Whole-cell KCa3.1 response elicited by 10 µM of activator normalized to 10 µM SKA-31 (described in words)” value on KCa3.1 is given as “completely devoid of activity”.
`Cc1cc2nc(N)oc2c2ccccc12` [SKA-121, 5-methylnaphtho[2,1-d]oxazol-2-amine]: the “Selectivity for KCa3.1” value in series [2] is 40–100 fold. Also, in series [1], the “KCa2 channel mediated side effects on CNS and heart rate” value is “avoiding KCa2 channel mediated side effects on the CNS and on heart rate”; the Blood pressure lowering result is listed as “efficacious in lowering blood pressure”.
As to `Cc1nc2c(cc(Br)c3ccccc32)s1` [SKA-132, 5-Bromo-2-methylnaphtho[1,2-d]thiazole], at KCa2.2, the “Whole-cell KCa2.2 response elicited by 10 µM of activator normalized to 10 µM SKA-31 (described in words)” value is given as “decreased activity”. Further, the “Selectivity between KCa3.1 and KCa2.2 in the 10 µM screen” value at KCa3.1 is “preserved selectivity for KCa3.1”.
